How the values were obtained:
Type in all cases: cell-based
[1] = target: P2Y6 (Homo sapiens, UniProt Q15077); assay: Calcium mobilization assay, P2Y6; parameters: key: no response (NR); details: activation of P2Y6 receptor;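 note: test compound added first then a maximal dose of the cognate agonist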
[2] = target: P2Y2 (Homo sapiens, UniProt P41231); assay: Calcium mobilization assay, P2Y2; parameters: key: no response (NR); details: activation of P2Y2 receptor;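 note: test compound added first then a maximal dose of the cognate agonist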
P2Y2, sequence (P41231 whole entry, species assumed): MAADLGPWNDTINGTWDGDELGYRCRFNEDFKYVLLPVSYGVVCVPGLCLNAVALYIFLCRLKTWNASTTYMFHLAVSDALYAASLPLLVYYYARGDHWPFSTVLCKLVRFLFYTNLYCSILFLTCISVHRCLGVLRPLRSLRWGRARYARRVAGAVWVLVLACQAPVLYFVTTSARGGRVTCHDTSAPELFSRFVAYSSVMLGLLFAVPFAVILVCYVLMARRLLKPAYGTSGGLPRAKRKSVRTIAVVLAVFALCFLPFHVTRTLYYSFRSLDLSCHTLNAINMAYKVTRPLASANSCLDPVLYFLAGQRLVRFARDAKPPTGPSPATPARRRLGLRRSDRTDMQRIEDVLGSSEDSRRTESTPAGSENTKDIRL

[3] = target: P2Y4 (Homo sapiens, UniProt P51582); assay: Calcium mobilization assay, P2Y4; parameters: key: no response (NR); details: activation of P2Y4 receptor;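 note: test compound added first then a maximal dose of the cognate agonist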
P2Y4, sequence (P51582 whole entry, species assumed): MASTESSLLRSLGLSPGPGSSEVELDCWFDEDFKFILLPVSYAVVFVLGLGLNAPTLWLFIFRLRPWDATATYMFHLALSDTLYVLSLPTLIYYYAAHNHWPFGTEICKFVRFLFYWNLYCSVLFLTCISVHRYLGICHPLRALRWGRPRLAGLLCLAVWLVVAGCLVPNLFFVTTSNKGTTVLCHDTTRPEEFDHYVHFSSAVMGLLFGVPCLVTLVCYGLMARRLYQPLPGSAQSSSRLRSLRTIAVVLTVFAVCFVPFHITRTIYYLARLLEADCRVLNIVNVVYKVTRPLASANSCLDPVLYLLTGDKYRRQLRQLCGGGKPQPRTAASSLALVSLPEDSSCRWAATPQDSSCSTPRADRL

[4] = target: P2Y1 (Homo sapiens, UniProt P47900); assay: Calcium mobilization assay, P2Y1; parameters: key: no response (NR); details: activation of P2Y1 receptor;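 note: test compound added first then a maximal dose of the cognate agonist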
P2Y1, sequence (P47900 whole entry): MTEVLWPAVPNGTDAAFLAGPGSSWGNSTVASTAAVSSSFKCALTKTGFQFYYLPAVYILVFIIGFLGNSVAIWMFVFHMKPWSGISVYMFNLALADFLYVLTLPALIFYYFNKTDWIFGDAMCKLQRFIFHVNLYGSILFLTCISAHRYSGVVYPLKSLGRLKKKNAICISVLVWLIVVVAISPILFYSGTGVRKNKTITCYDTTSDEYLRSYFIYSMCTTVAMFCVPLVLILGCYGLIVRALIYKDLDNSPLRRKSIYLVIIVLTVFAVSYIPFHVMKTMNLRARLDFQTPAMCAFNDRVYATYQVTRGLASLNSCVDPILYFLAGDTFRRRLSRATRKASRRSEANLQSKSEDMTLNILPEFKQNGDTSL

[5] = test system: washed platelet (ADP-induced aggregation; P2Y12 receptor); assay: ADP-induced platelet aggregation, washed platelet preparation; details: Homo sapiens, inhibition of ADP-induced aggregation, washed platelets, average of at least two separate experiments
Protocol: Blood was collected from healthy volunteers into syringes containing ⅙ final blood volume of anti-coagulant ACD (65 mM citric acid, 85 mM sodium citrate, 110 mM dextrose) for washed platelet (WP) preparation or into a syringe containing a final concentration of 10 units/mL heparin or 300 μM PPACK for whole blood (WB) assays. The blood collected for whole blood assays was maintained at room temperature and immediately tested as described below. […] These centrifugations and washes were repeated twice following by resuspension in the media described above containing 0.25 U apyrase/mL. Platelet aggregation was measured using the optical mode of a CHRONOLOG® aggregometer (Havertown, Pa.). Five hundred μl of platelet suspension containing 1 mg/mL Fibrinogen were warmed to 37° C. and stirred at 1000 rpm. Indicated concentrations of ADP were added to the sample and aggregation was monitored for 8 minutes. […] For whole blood aggregation, blood was diluted 1:1 with saline and then aggregation was performed in the same manner as described above using the impedance mode of the aggregometer. The potency of agonists and inhibitors of platelet aggregation was calculated from both, the rate of aggregation and the maximal extent of aggregation obtained for each determination by fitting the data to a four-parameter logistic equation using the […]® software package (GraphPad Corp. San Diego, Calif.).
The ability of P2Y12 antagonists to inhibit platelet aggregation is presented in this application as the percent inhibition of the aggregation induced by a maximally effective concentration of ADP.
Data presented are from the average of at least two separate experiments.

P2Y6, sequence (Q15077 whole entry, species assumed): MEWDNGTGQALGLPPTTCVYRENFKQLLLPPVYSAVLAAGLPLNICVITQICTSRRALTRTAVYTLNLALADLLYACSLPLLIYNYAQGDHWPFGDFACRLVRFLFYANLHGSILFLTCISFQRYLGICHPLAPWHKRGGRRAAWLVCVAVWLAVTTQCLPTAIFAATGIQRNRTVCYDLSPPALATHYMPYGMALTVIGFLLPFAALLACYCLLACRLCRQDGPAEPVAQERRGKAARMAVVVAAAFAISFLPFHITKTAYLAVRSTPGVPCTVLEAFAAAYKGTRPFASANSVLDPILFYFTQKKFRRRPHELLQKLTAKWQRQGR

SMILES | Calcium Mobilization P2Y6 [1] | Calcium Mobilization P2Y2 [2] | Calcium Mobilization P2Y4 [3] | Calcium Mobilization P2Y1 [4] | IC50 [5] [nM]
O=C(Nc1ccccc1)Nc1ncnc2c1ncn2[C@@H]1O[C@H](COP(=O)(O)O)C2OC(Cc3ccccc3)O[C@@H]21 (stereo partly shown) [Compound 22, 2′,3′-phenylacetaldehyde acetal-6-N-phenylurea adenosine 5′-monophosphate] | NR | NR | NR | NR | 160 ± 27
CCCCCCNC(=O)Nc1ncnc2c1ncn2[C@@H]1O[C@H](COP(=O)(O)O)C2OC(Cc3ccccc3)O[C@@H]21 (stereo partly shown) [Compound 23, 2′,3′-phenylacetaldehyde acetal-6-N-n-hexylurea AMP] | NR | NR | NR | NR | 53 ± 16
CCNC(=O)Nc1ncnc2c1ncn2[C@@H]1O[C@H](COP(=O)(O)O)C2OC(Cc3ccccc3)O[C@@H]21 (stereo partly shown) [Compound 24, 2′,3′-phenylacetaldehyde acetal-6-N-ethylurea AMP] | NR | NR | NR | NR | 41 ± 7
O=C(Nc1ccccc1)Nc1ncnc2c1ncn2[C@@H]1O[C@H](COP(=O)(O)O)C2OC(/C=C/c3ccccc3)O[C@@H]21 (stereo partly shown) [Compound 28, 2′,3′-cinnamyl acetal-6-N-phenylurea AMP] | NR | NR | NR | NR | 209
O=C(Nc1ccccc1)Nc1ncnc2c1ncn2[C@@H]1O[C@H](COP(=O)(O)O)C2OC(C#Cc3ccccc3)O[C@@H]21 (stereo partly shown) [Compound 31, 2′,3′-phenylpropargyl acetal-6-N-phenylurea AMP] | NR | NR | NR | NR | 230
CCCCCCNC(=O)Nc1ncnc2c1ncn2[C@@H]1O[C@H](COP(=O)(O)O)C2OC(C#Cc3ccccc3)O[C@@H]21 (stereo partly shown) [Compound 32, 2′,3′-phenylpropargyl acetal-6-N-n-hexylurea AMP] | NR | NR | NR | NR | 210
CCCCNC(=O)Nc1ncnc2c1ncn2[C@@H]1O[C@H](COP(=O)(O)O)C2OC(C#Cc3ccccc3)O[C@@H]21 (stereo partly shown) [Compound 33, 2′,3′-phenylpropargyl acetal-6-N-n-butylurea AMP] | NR | NR | NR | NR | 67
CCNC(=O)Nc1ncnc2c1ncn2[C@@H]1O[C@H](COP(=O)(O)OP(=O)(O)OC[C@H]2O[C@@H](n3cnc4c(NC(=O)NCC)ncnc43)[C@H]3OC(Cc4ccccc4)OC23)C2OC(Cc3ccccc3)OC21 (stereo partly shown) [Compound 46, P^1, P^1-di-(2′,3′-phenylacetaldehydeacetal-6-N-ethylureaadenosine 5′-) diphosphate] | NR | NR | NR | NR | 53
CCNC(=O)Nc1ncnc2c1ncn2[C@@H]1O[C@H](COP(=O)(O)OP(=O)(O)OC[C@H]2O[C@@H](n3cnc4c(NC(=O)NCC)ncnc43)[C@H]3OC(c4ccccc4)OC23)C2OC(c3ccccc3)OC21 (stereo partly shown) [Compound 47, P^1, P^4-Di-(2′,3′-phenylacetal-6-N-ethylureaadenosine 5′-) diphosphate] | NR | NR | NR | NR | 55

Now those with a lower IC50 [5], led by results:

Calcium Mobilization P2Y6 [1] | Calcium Mobilization P2Y2 [2] | Calcium Mobilization P2Y4 [3] | Calcium Mobilization P2Y1 [4] | IC50 [5] [nM] | SMILES
NR | NR | NR | NR | 36 ± 9 | O=C(Nc1ncnc2c1ncn2[C@@H]1O[C@H](COP(=O)(O)O)C2OC(Cc3ccccc3)O[C@@H]21)NC1CCCC1 (stereo partly shown) [Compound 25, 2′,3′-phenylacetaldehyde acetal-6-N-cyclopentylurea AMP]
NR | NR | NR | NR | 36 ± 9 | CCCCCCNC(=O)Nc1ncnc2c1ncn2[C@@H]1O[C@H](COP(=O)(O)O)C2OC(/C=C/c3ccccc3)O[C@@H]21 (stereo partly shown) [Compound 26, 2′,3′-cinnamyl acetal-6-N-n-hexylurea AMP]
NR | NR | NR | NR | 9 ± 3 | CCNC(=O)Nc1ncnc2c1ncn2[C@@H]1O[C@H](COP(=O)(O)O)C2OC(/C=C/c3ccccc3)O[C@@H]21 (stereo partly shown) [Compound 27, 2′,3′-cinnamyl acetal-6-N-ethylurea adenosine 5′-monophosphate]
NR | NR | NR | NR | 25 | CCNC(=O)Nc1ncnc2c1ncn2[C@@H]1O[C@H](COP(=O)(O)O)C2OC(C#Cc3ccccc3)O[C@@H]21 (stereo partly shown) [Compound 35, 2′,3′-phenylpropargyl acetal-6-N-ethylurea AMP]
NR | NR | NR | NR | 13 ± 3 | CCNC(=O)Nc1ncnc2c1ncn2[C@@H]1O[C@H](COP(=O)(O)O)C2OC(c3ccccc3)O[C@@H]21 (stereo partly shown) [Compound 36, 2′,3′-benzaldehyde acetal-6-N-ethylurea AMP]
NR | NR | NR | NR | 12 | CCNC(=O)Nc1ncnc2c1ncn2[C@@H]1O[C@H](COP(=O)(O)O)C2O[C@H](c3ccccc3)O[C@@H]21 (stereo partly drawn) [Compound 42, 2′3′-(trans)phenyl acetal-6-N-ethylurea AMP]
NR | NR | NR | NR | 11 | CCNC(=O)Nc1ncnc2c1ncn2[C@@H]1O[C@H](COP(=O)(O)O)C2O[C@@H](c3ccccc3)O[C@@H]21 (stereo partly drawn) [Compound 43, 2′3′-(cis)phenyl acetal-6-N-ethylurea AMP]
NR | NR | NR | NR | 10 | CCNC(=O)Nc1ncnc2c1ncn2[C@@H]1O[C@H](COP(=O)(O)OP(=O)(O)OC[C@H]2O[C@@H](n3cnc4c(NC(=O)NCC)ncnc43)[C@H]3OC(C#Cc4ccccc4)OC23)C2OC(C#Cc3ccccc3)OC21 (stereo partly shown) [Compound 45, P^1, p2′-di-(2′,3′-phenylpropargylacetal-6-N-ethylureaadenosine 5′-) diphosphate]
